Experiment [1] concerns Saccharomyces cerevisiae. Briefly: Antimicrobial activity against Saccharomyces cerevisiae at 30 ug by agar diffusion method. The format is functional, organism-based.
For experiment [2], the system named is Candida albicans. Briefly: Antimicrobial activity against Candida albicans 109 at 30 ug by agar diffusion method. The format is functional.
The subject of experiment [3] is Candida albicans. Briefly: Antimicrobial activity against Candida albicans wisconsin at 30 ug by agar diffusion method. The format is functional. (In general: A growth-free zone around the sample is the usual read-out of agar diffusion tests.)

Active and inactive are the calls of the source. No cut-off for these calls is given here.

For the compound NYSTATIN, the values for the inhibition zone (IZ) in experiment [1], in experiment [2] and in experiment [3] were 21 mm, 22 mm and 19 mm, respectively.

As for `C=C1C(O)=C(C(=O)C(C)CC)C(=O)OC1C` (stereo unspecified), in experiment [1], the result was inactive. Besides, the zone of inhibition at 30 µg/disc in experiment [2] (read-out: IZ) was found to be 24 mm; in experiment [3] (read-out: IZ) it was 20 mm.

For the origin of these results see ChEMBL document CHEMBL1155614, “CR377, a new pentaketide antifungal agent isolated from an endophytic fungus” (2000).
